Patent publication US7414023B2, “Peptide ligands for prostate specific antigen” (Licentia Ltd., priority 2000, dated 2008)
Bridge positions count the residues as written; N and C are the ends. Peptide text beside a SMILES is read from it.

Legend:
Design in all cases: PSA was purified from human seminal fluid as described previously (3); from tissue; host or cells: human seminal fluid
PSA [1] = target: T1, PSA (Homo sapiens, UniProt P07288); test: PSA activity measurements with modified peptides, substrate S-2586 (Example 5); type: biochemical; conditions: ratio of OD 405 nm of PSA-peptide to PSA alone after 60 minutes; ratio > 1.1 interpreted as active
T1 sequence (P07288 25-261): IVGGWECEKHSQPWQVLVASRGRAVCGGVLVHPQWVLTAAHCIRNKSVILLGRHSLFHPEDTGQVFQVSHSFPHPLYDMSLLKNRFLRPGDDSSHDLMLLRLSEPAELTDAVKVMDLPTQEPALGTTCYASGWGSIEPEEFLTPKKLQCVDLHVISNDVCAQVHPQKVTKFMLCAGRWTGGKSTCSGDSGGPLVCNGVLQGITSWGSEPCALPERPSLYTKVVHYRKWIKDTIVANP
Description: PSA activity measurements: The effect of different peptides on the activity of PSA was studied by using chymotrypsin substrate S-2586 (MeO-Suc-Arg-Pro-Tyr-pNA) (Chromogenix, Mölndal, Sweden). 77 pmoles (2 μg) of PSA, substrate and 10 μmoles of different peptides were incubated in Tris-buffer (10 mM Tris and 150 mM NaCl at pH 7.8) with 0.2 mM concentration of the substrate at room temperature. PSA reaction without any peptide was used as basic level control. Reaction was measured after 60 minutes incubation at […] using Multiscan RC photometer (Labsystems, Finland). The effect of the peptides was calculated as a ratio from the OD value of PSA-peptide complex to PSA alone after 60 minutes incubation.

PSA [2] = target: T1, PSA; test: GST-peptide IFMA: binding of GST-peptides to PSA captured by MAb 5E4; conditions: for binding to PSA in GST-peptide IFMA (in words): GST fusion proteins; for Maximal binding (CPS): GST-peptide fusion proteins, Eu-labelled anti GST antibody as tracer
Description: After washing the binding of GST-peptide was quantified by IFMA using an Eu-labelled anti GST antibody as tracer. Data represent mean values from duplicate wells ±standard error (SE).
The solid phase antibodies used in the IFMAs were coated onto microtitration wells at a concentration of 5 μg/mL in TBS for 16 h at 22° C., the solution was discarded and the wells were saturated with 10 g/L bovine serum albumin in TBS for 3 h at 22° C. The antibodies used as tracers were labeled with a Eu^3+ chelate as described previously (26). The assay buffer was 50 mM Tris-HCL, pH 7.7, 150 mM NaCl, 33.3 μM bovine serum albumin, 1 μM bovine globulin.
The binding of individual phage clones to PSA was tested by IFMA (phage IFMA). In the phage IFMA, about 30 ng of PSA was added to MAb 5E4 coated wells for 1 h. After washing (Buffer: 150 mM NaCl, 7.7 mM NaN3, 0.2 g/L Tween 20), 15 μL of phage and 200 μl assay buffer was added. After incubation for 1 h, the wells were washed and filled with 200 μl of assay buffer containing 50 ng europium-labeled anti phage monoclonal antibody recognizing the M13 coat protein of the phage. After incubation for 60 min, the wells were washed 4 times, and enhancement solution (EG&G-Wallac) was added. The fluorescence was quantified with a 1234 DELFIA Research fluorometer (EG&G-Wallac). Binding of GST-peptide to PSA was determined by an IFMA (GST-peptide IFMA) similar to the one for phage peptides except that Eu^3+-labeled antibody to GST was used. Various amounts of GST-peptide or wild type GST were added to wells containing captured PSA in 200 μL of assay buffer and incubated for 1 h. To test the effect of Zn^2+ on the binding between GST-peptide and PSA, various concentrations of Zn^2+ (1-200 μM) were added to the buffer in the incubation step of GST-peptide and PSA. In competition experiments, GST-peptide (167 nM) or wild type GST were first incubated with increasing amounts of PSA (0-333 nM) in 0.5% BSA-TBS buffer for 60 min, then added to wells containing PSA captured by MAb 5E4. After incubation for 1 h the wells were washed and Eu^3+-labeled anti GST antibody was added. After further incubation and washing the bound fluorescence was measured as described above. When assessing the binding of the GST-peptides to other proteinases, including chymotrypsin, cathepsin G, trypsin, and kallikrein, these proteinases were captured by their specific antibodies coated to the microtitration well. Recombinant hK2 was captured by MAb 5E4, which is known to bind hK2 (24). For assessing the binding of the GST-peptides with complexes of PSA, including PSA-ACT and PSA-α1-protease inhibitor (PSA-API) (28), the complexes were captured by antibodies against ACT and API, respectively. After capturing the various proteinases or PSA complexes, GST-peptide was added and binding was monitored as described above for the GST-peptide IFMA.

PSA [3] = target: T1, PSA; test: Surface plasmon resonance, GST-peptides on PSA captured by MAb H117; type: binding
Description: The binding kinetics of selected peptides to PSA was studied by surface plasmon resonance (29) on a BIAcore 2000™ instrument (Biacore AB, Uppsala, Sweden). PSA was captured to the solid phase by MAb H117 which binds to the same epitope as MAb 5E4 (30). The capture antibody was covalently coupled onto the surface of the CM5 sensor chip according to the manufacturer's instructions, using coupling levels of 5000 resonance units (RU). PSA was captured by injection of 416 nM of PSA in PBS, 4-min contact time (5 μl/min) and 60 min wash (20 μl/min) providing ligand levels in the range 500-600 RUs. Each analyte (GST-peptide), at various concentrations, was injected for 1 min at 20 μl/min flow rate. […] PSA-binding to either chemically activated/deactivated blank surface or MAb H117 alone was subtracted as a non-specific interaction. Regeneration after each measurement cycle was done with 3×0.5 min injections of 10 mM HCl. Binding data were analyzed using the BIAEVALUATION software.
The association rate constat (ka), dissociation rate constant (kd) and equilibrium dissociation constant (KD) for GST-peptides to PSA were measured by surface plasmon resonance. […]
The binding kinetics and affinity of the peptides to PSA was estimated by surface plasmon resonance. Increasing concentrations of GST-peptides were injected over PSA captured by MAb H117. Background-corrected sensorgrams were fitted to single-site interaction between GST-peptide and PSA using three different GST-peptide concentrations and the rate equation: d(GST-peptide:PSA)/dt=ka(GST-peptide)×(PSA)−kd(GST-peptide:PSA).

[4] = average at 3 analyte concentrations
[5] = zinc 0 μM, average of 3 fits, analyte 3.4-8.5 μM
[6] = zinc 1 μM, single fit, 3.4 μM peptide
[7] = zinc 10 μM, single fit, 3.4 μM peptide
[8] = zinc 30 μM, single fit, 3.4 μM peptide

Row | Molecule | PSA-peptide/PSA ratio (PSA [1]) | binding to PSA in GST-peptide IFMA (in words) (PSA [2]) | Maximal binding (CPS) (PSA [2]) | kd × 10^−3 (1/s) (PSA [3]; [4]) | kd × 10^−3 (1/s) (PSA [3]; [5]) | kd × 10^−3 (1/s) (PSA [3]; [6]) | increase (fold) of affinity (PSA [3]; zinc 10 μM versus 0 μM) [fold] | kd × 10^−3 (1/s) (PSA [3]; [7]) | increase (fold) of affinity (PSA [3]; zinc 30 μM versus 0 μM) [fold] | kd × 10^−3 (1/s) (PSA [3]; [8]) | ka × 10^3 (1/Ms) (PSA [3]; [4]) | Kd (PSA [3]; [5]) [µM] | ka × 10^3 (1/Ms) (PSA [3]; [5]) | increase (fold) of affinity (PSA [3]; zinc 1 μM versus 0 μM) [fold] | ka × 10^3 (1/Ms) (PSA [3]; [6]) | ka × 10^3 (1/Ms) (PSA [3]; [7]) | Kd (PSA [3]; [8]) [µM] | ka × 10^3 (1/Ms) (PSA [3]; [8])
1 | CC(C)C[C@@H]1NC(=O)[C@H](Cc2ccc(O)cc2)NC(=O)[C@H](CC(=O)O)NC(=O)[C@H](Cc2ccc(O)cc2)NC(=O)[C@H](CC(N)=O)NC(=O)[C@H](Cc2c[nH]cn2)NC(=O)[C@H](C)NC(=O)[C@H](Cc2ccccc2)NC(=O)[C@H](C(C)C)NC(=O)[C@@H](N)CSSC[C@@H](C(=O)O)NC(=O)[C@H](C(C)C)NC1=O [Peptide B-2] (H-CVFAHNYDYLVC-OH; disulfide 1-12; N-terminus assumed) | 3.0 | less efficiently than C-4 | 428000 | 57 × 10^−3 1/s | 57 × 10^−3 1/s | 3.5 × 10^−3 1/s | 6 | 1.6 × 10^−3 1/s | 4.7 | 0.6 × 10^−3 1/s | – | – | – | – | – | – | – | –
2 | CVFTSDYAFC [Peptide A-1] | 2.3 | less efficiently than C-4 | 219000 | 80 × 10^−3 1/s | 80 × 10^−3 1/s | 4.7 × 10^−3 1/s | 5.9 | 1.6 × 10^−3 1/s | 7.7 | 2.0 × 10^−3 1/s | 10.3 × 10^3 1/Ms | 7.8 | 10.3 × 10^3 1/Ms | 3 | 1.8 × 10^3 1/Ms | 1.2 × 10^3 1/Ms | 1 | 1.9 × 10^3 1/Ms
